The subject of one data set is primary rat hepatocytes. Put plainly: Measurement of glycogen synthesis in primary rat hepatocytes. It is filed as cell-based. As to conditions: Rattus norvegicus, Hepatocyte, 3 h, 10 μM compound, 10 mM glucose, fold increase over DMSO control. The procedure:
Primary hepatocytes are collected from male Wistar rats, and tested for viability by trypan blue exclusion. Primary hepatocytes cultures with viability greater than 95% are selected for the glycogen synthesis assay. The cells are seeded in a 48-well plate at a density of 200,000 cells/well in 250 μl Minimal Essential Medium (MEM) containing 10% foetal calf serum (FCS) and 1.7 μM insulin, and incubated for 4 hours at 37° C. to allow attachment. The medium is replaced with fresh MEM containing 10% FCS, 1.7 μM insulin and 10 nM dexamethasone, and the cells are incubated for 16 hours at 37° C. The medium is then replaced with fresh MEM (serum-free) containing 2 μCi/ml of D-[U^14C]-Glucose along with 10 μM of the compound in a final DMSO concentration of 0.1%. The final glucose concentration is brought to 10 mM by the addition of D-Glucose (MEM already contains 5 mM glucose). The cells are incubated for 3 hours at 37° C. The cells are washed twice with 150 mM NaCl, lysed with 0.1 N NaOH, and the lysate precipitated with 8% w/v trichloroacetic acid (TCA) and 1 mg/well unlabeled glycogen as carrier. Cell debris is pelleted by centrifugation, the supernatant is removed, and the glycogen is precipitated with 63% ethanol. After another round of centrifugation, the supernatant is removed, and the pellet containing the precipitated glycogen is dried overnight. De novo synthesized glycogen is estimated in a scintillation counter (MicroBeta Trilux, Perkin Elmer), and expressed as fold increase over DMSO control.
The protocol for the glycogen assay is based on the method described in “Biochem J. 1990 Feb. 15; 266(1): 91-102” with a few minor modifications. The protocol for isolation of primary rat hepatocytes is based on the method described in “Methods in Enzymology, Vol. III. pp 34-50. Ed. by S. P. Colowick and N. O. Kaplan. New York, Academic Press, 1957” with a few minor modifications.
Compounds described in formula (I), in concentration ranges from 1.0 nM to 500 μM, are tested in glycogen synthesis assay described above.

The target of data set [1] is T1, purified human recombinant GK (Homo sapiens, UniProt P35557).
T1 sequence (P35557 1-465): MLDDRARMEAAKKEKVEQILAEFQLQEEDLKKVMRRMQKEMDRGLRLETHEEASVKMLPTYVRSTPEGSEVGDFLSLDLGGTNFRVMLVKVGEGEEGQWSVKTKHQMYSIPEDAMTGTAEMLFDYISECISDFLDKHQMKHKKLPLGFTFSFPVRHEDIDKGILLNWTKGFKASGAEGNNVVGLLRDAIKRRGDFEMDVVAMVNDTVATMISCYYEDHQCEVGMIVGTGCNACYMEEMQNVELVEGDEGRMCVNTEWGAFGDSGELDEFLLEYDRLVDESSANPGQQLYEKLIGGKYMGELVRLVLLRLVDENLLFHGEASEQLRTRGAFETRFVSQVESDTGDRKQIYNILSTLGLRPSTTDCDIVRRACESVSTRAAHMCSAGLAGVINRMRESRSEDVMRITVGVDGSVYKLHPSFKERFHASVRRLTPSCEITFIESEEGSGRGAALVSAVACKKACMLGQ
Put plainly: Glucokinase activity assay (coupled enzymatic GK/G6PD assay, NADH absorbance at 340 nm). Type of data set: biochemical. As to conditions: for EC50: EC50 of % change in S0.5 of glucokinase for glucose, sigmoidal fit, read-out: EC50 (with respect to % ΔS0.5); for Emax: Emax of % change in S0.5, vehicle S0.5 = 0%, 0 mM glucose = 100%, read-out: % Emax (with respect to % ΔS0.5). The source says: The glucokinase (GK) assay is a coupled enzymatic assay. GK catalyzes the first step of glycolysis, the conversion of glucose to glucose-6-phosphate (G6P) in the presence of ATP. G6P in turn is converted by glucose-6-phosphate dehydrogenase (G6PD) to 6-phosphogluconate, a process that requires NAD, resulting in NADH formation. Since the GK-catalyzed step is the rate-limiting step of this coupled enzymatic process, the rate of accumulation of 6-phosphogluconate and NADH is directly proportional to the rate of glucose phosphorylation by GK. The rate of the GK-catalyzed reaction can therefore be measured by monitoring the increase in NADH absorbance at 340 nm.
The assay is carried out according to the protocol outlined in Hariharan et al (1997), Diabetes 46: 11-16. Briefly, the test compounds are incubated in a reaction mix containing 25 mM HEPES (pH 7.2), 10 mM MgCl2, 100 mM KCl, 5 mM ATP, 2 mM DTT, 0.5 mM NAD, 1 U/ml Leuconostoc mesenteroides G6PD, 0.3 U/ml of purified human recombinant GK, and different concentrations of glucose. Enzymatic activity is calculated from the initial reaction velocity, measured from the change in NADH absorbance as a function of time.
Compounds described in formula (I), in concentration ranges from 1.0 nM to […] are tested in the purified human recombinant glucokinase assay described above.
A compound is considered to be a glucokinase activator if it, in its testable range of concentrations, yields a higher rate of glucose phosphorylation than in its absence at a particular glucose concentration, for example at 5 mM glucose.
Compounds of general formula (I) are tested in the in vitro GK enzymatic assay to monitor dose-dependent effect on glucokinase activation (in kinetic mode), as described above, at various glucose concentrations. The S0.5 of glucokinase for glucose at different concentration of each compound of interest is calculated from the following modified version of the Michaelis-Menten equation, V=Vmax[S]^n/(S0.5^n+[S]^n), where [S] is the glucose concentration and n is the Hill coefficient (taken as 1.7 to account for the sigmoidal kinetics of glucokinase with respect to glucose). The S0.5 is plotted against the log of the compound concentration. The change in the S0.5 of glucokinase (ΔS0.5) for glucose is calculated by subtracting the S0.5 at each concentration of the compound from the S0.5 in the vehicle control. The ΔS0.5 is then normalized to a percent scale, where the S0.5 in the vehicle control is set to 0% and 0 mM glucose is set to 100%. The % ΔS0.5 is then plotted against the log of the compound concentration. The EC50 and Emax of % change in S0.5 is obtained from the sigmoidal fit of the data. Detailed protocol has been described in our copending application no. WO 2008/104994 which is incorporated herein by reference. Characterization data of some representative glucokinase activators of the present disclosure, which are illustrative but not limiting, are given in table 1 below.

For data set [2] the following is noted: Kamata et al (2004) Structure 12: 429-438; cited from earlier work.

As usually defined, the fold induction is the signal under treatment as a multiple of the control signal. Higher therefore signals a large rise in signal. One may read the EC50 as the concentration that produces a half-maximal response. The term Emax denotes the greatest response seen or fitted, relative to the assay's reference. What is called melting point is the temperature, or range, at which the solid turns liquid.

In the data set on primary rat hepatocytes, `O=C(O)Cc1nc(NC(=O)C(Oc2ccc(F)cc2F)c2ccc(S(=O)(=O)C3CC3)cc2)sc1Cl` (single isomer, unassigned; (-)) [Example E1, (−)-{5-Chloro-2-[2-(4-cyclopropanesulfonyl-phenyl)-2-(2,4-difluorophenoxy)acetyl-amino]thiazol-4-yl}acetic acid] came in with a fold induction at 10 µM of 8.1. Further, in data set [1], the EC50 came out at 1550 nM and the Emax worked out at 95%.
The like results for `O=C(O)Cc1nc(NC(=O)C(Oc2ccc(F)cc2F)c2ccc(S(=O)(=O)C3CCCC3)cc2)sc1Cl` (single isomer, unassigned; (-)) [Example E2, (−)-{5-Chloro-2-[2-(4-cyclopentanesulfonyl-phenyl)-2-(2,4-difluorophenoxy)acetyl-amino]thiazol-4-yl}-acetic acid] were, in that order, 8.8, 370 nM and 95%.
The compound `O=C(O)Cc1csc(NC(=O)C(Oc2ccc(F)cc2F)c2ccc(S(=O)(=O)C3CC3)cc2)n1` (single isomer, unassigned; (-)) [Example E3, (−){2-[2-(4-Cyclopropanesulfonylphenyl)-2-(2,4-difluorophenoxy)acetylamino]-thiazol-4-yl}acetic acid] yielded a fold induction at 10 µM in the data set on primary rat hepatocytes of 9.5. In addition, in data set [1], the EC50 came to 2370 nM and the Emax is 90%.
On to `O=C(Nc1nc2cccnc2s1)C(OC1CCOCC1)c1ccc(S(=O)(=O)C2CC2)cc1` (single isomer, unassigned; (-)) [Example H10A, (−)2-(4-Cyclopropanesulfonyl-phenyl)-2-(tetrahydro-pyran-4-yloxy)-N-thiazolo[5,4-b]pyridin-2-yl-acetamide], for which, in the data set with primary rat hepatocytes, the fold induction at 10 µM came out at 4.1. Moreover, in data set [1], the 50% effective concentration (EC50) is 150 nM and the Emax amounted to 94%.
In the data set with primary rat hepatocytes, `O=C(Nc1ncc(F)s1)C(Oc1ccc(F)cc1F)c1ccc(S(=O)(=O)C2CC2)cc1` (centres unmarked) [Example A3, 2-(4-Cyclopropanesulfonylphenyl)-2-(2,4-difluorophenoxy)-N-(5-fluorothiazol-2-yl)-acetamide] came in with a fold induction at 10 µM of 2.9. In data set [1], the EC50 is 200 nM and the Emax was determined as 95%.
The like results for `O=C(Nc1nccs1)C(Oc1ccc(F)cc1F)c1ccc(S(=O)(=O)C2CCCC2)cc1` (centres unmarked) [Example A10, 2-(4-Cyclopentanesulfonylphenyl)-2-(2,4-difluorophenoxy)-N-thiazol-2-yl-acetamide] were, in that order, 4.3, 110 nM and 95%.
For the compound `COc1cnc(NC(=O)C(Oc2ccc(F)cc2F)c2ccc(S(=O)(=O)C3CC3)cc2)s1` (centres unmarked) [Example A75, 2-(4-Cyclopropanesulfonyl-phenyl)-2-(2,4-difluoro-phenoxy)-N-(5-methoxy-thiazol-2-yl)-acetamide], in the data set with primary rat hepatocytes, the fold induction at 10 µM is 7.1. For the same compound, in data set [1], the concentration giving a half-maximal response (EC50) was 76 nM and the Emax was determined as 93%.
As to `O=C(O)Cc1csc(NC(=O)C(Oc2ccc(F)cc2)c2ccc(S(=O)(=O)C3CC3)cc2)n1` (centres unmarked) [Example B1, {2-[2-(4-Cyclopropanesulfonylphenyl)-2-(4-fluorophenoxy)acetylamino]thiazol-4-yl}acetic acid], the melting point is 72 to 73 °C.
As for `O=C(O)Cc1nc(NC(=O)C(Oc2ccc(Cl)cc2)c2ccc(S(=O)(=O)C3CC3)cc2)sc1Cl` (centres unmarked) [Example B6, {5-Chloro-2-[2-(4-chlorophenoxy)-2-(4-cyclopropanesulfonylphenyl)-acetylamino]-thiazol-4-yl}acetic acid], the fold induction at 10 µM in the data set on primary rat hepatocytes amounted to 8.6. Further, in data set [1], the EC50 amounted to 830 nM and the Emax was 90%.
Regarding `O=C(O)Cc1csc(NC(=O)C(Oc2ccc(F)cc2F)c2ccc(S(=O)(=O)C3CCCCC3)cc2)n1` (centres unmarked) [Example B16, {2-[2-(4-Cyclohexanesulfonylphenyl)-2-(2,4-difluorophenoxy)acetylamino]-thiazol-4-yl}acetic acid], the fold induction at 10 µM with primary rat hepatocytes is 5.5. Also, in data set [1], the EC50 came to 1000 nM and the Emax was found to be 90%.
In the data set with primary rat hepatocytes, `O=C(O)Cc1nc(NC(=O)C(Oc2ccc3[nH]ccc3c2)c2ccc(S(=O)(=O)C3CC3)cc2)sc1Cl` (centres unmarked) [Example B19, {5-Chloro-2-[2-(4-cyclopropanesulfonylphenyl)-2-(1H-indol-5-yloxy)acetylamino]thiazol-4-yl}acetic acid] gave a fold induction at 10 µM of 3.3. Besides, in data set [1], the EC50 worked out at 3300 nM and the Emax came out at 95%.
For `CC(=O)Nc1cccc(OC(C(=O)Nc2nc(CC(=O)O)c(Cl)s2)c2ccc(S(=O)(=O)C3CC3)cc2)c1` (centres unmarked) [Example B20, {2-[2-(3-Acetylaminophenoxy)-2-(4-cyclopropanesulfonylphenyl)acetylamino]-5-chloro-thiazol-4-yl}acetic acid] the same measures were 6.8, 6800 nM and 90%.
The like results for `O=C(O)c1cccc(Oc2cnc(NC(=O)C(OC3CCOCC3)c3ccc(S(=O)(=O)C4CC4)cc3)s2)c1` (centres unmarked) [Example B92, 3-{2-[2-(4-Cyclopropanesulfonyl-phenyl)-2-(tetrahydro-pyran-4-yloxy)-acetylamino]-thiazol-5-yloxy}-benzoic acid] were, in that order, 7.8, 170 nM and 91%.
The like results for `O=C(Nc1ncc(Oc2ccc(C(=O)N3CCC3)cc2)s1)C(OC1CCOCC1)c1ccc(S(=O)(=O)C2CC2)cc1` (centres unmarked) [Example G6] were, in that order, 6.2, 110 nM and 90%.
As for Ro-28-1675, the “hypoglycemia in animal efficacy models” value in data set [2] is reported as “cause hypoglycemia”.

The record behind these values is patent publication US8501955B2, “Acetamide derivatives as glucokinase activators, their process and medicinal application” (Advinus Therapeutics Private Limited, priority 2007, dated 2013).
